According to patent EP4800015A1, “AZABICYCLO DERIVATIVE AND PREPARATION METHOD THEREFOR, AND USE” (Zhejiang Hisun Pharmaceutical Co., Ltd., priority 2023, dated 2025):
pIC50: −log10 of the molar value.

Experiments:
[1] = target: T1, recombinant human WRN (Homo sapiens, UniProt Q14191); test: Inhibition of WRN enzyme activity (ATPase), ADP-Glo Kinase Assay; type: biochemical; details: WRN protein 5 nM, Flap 0.1 nM, ATP 30 µM; read-out: IC50
T1 construct: purchased BPS 101264
How it was run: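 ATPase activity was measured by ADP-Glo luminescence after a 10-min room-temperature reaction with 30 µM ATP and 0.1 nM Flap26 oligonucleotide substrate. The 5 nM WRN had first been exposed to compound (0.004–1000 nM) for 15 min in pH 7.5 Tris buffer with 2 mM MgCl2. IC50 values came from log-concentration regression against the DMSO control.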

[2] = system: SW48 cells; test: Inhibition of SW48 cell proliferation (CellTiter-Glo); type: cell-based; details: Homo sapiens; SW48 cells (MSI-H), 120 hours
How it was run: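 SW48 (MSI-H) cells in L-15 with 10% FBS were seeded at 500 per well, cultured overnight at 37 °C, then exposed to compound at final concentrations of 10000 nM to 1.52 nM for 120 h. Viability was read by CellTiter-Glo luminescence, with inhibition relative to 0.1% DMSO. IC50 from nonlinear regression of log concentration versus inhibition.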

[3] = system: RL95-2 cells; test: Inhibition of RL95-2 cell proliferation (CellTiter-Glo); type: cell-based; details: Homo sapiens; RL95-2 cells (MSI-H), 120 hours
How it was run: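 Proliferation IC50 derived by nonlinear regression of % inhibition against log concentration, with 0.1% DMSO wells as reference. CellTiter-Glo luminescence was read after 120 h of compound exposure (10000 nM down to 1.52 nM final) at 37 °C. MSI-H RL95-2 cells seeded at 500/well in DMEM/F12 with 10% FBS the day before.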

[4] = Pharmacokinetic test in mice after intragastric administration; type: in vivo; details: male, mouse, plasma, ICR mice, Oral (10 mg/kg); for AUC(0-t): read-out: Area under curve AUC0-t; for half-life: read-out: Half-life T1/2 (converted); for Cmax: read-out: Plasma concentration Cmax
Description: ICR mice were used as test animals, the plasma concentrations of the control compound HRO761 and the compounds of the present disclosure at different time points after intragastric administration were determined by LC/MS/MS method, and the pharmacokinetic characteristics of the compounds of the present disclosure in mice were studied.
ICR mice, male, 30.8 to 38.0 g, purchased from Vital River Laboratory Animal Technology Co., Ltd.
An appropriate amount of the test compound was weighed, and an appropriate amount of DMA (N,N-dimethylacetamide), 30% Solutol HS15 (30% polyethylene glycol-15 hydroxystearate), and Saline (saline) were added sequentially, the mixture was ultrasonicated and vortex mixed to prepare a 1 mg/mL dosing formulation. The ratio of DMA:30% Solutol HS15:Saline was 5:5:90 (v/v/v).
After overnight fasting, ICR mice in each test compound injection group (9 mice per group) were administered intragastrically (PO, compound dose was 10 mg/kg, administration volume was 10 mL/kg), and food was given 4 hours after administration.
About 0.1 mL of blood was collected via the orbital cavity before administration and at 0.25 h, 0.5 h, 1 h, 2 h, 4 h, 8 h, 10 h, and 24 h after administration, and whole blood samples were placed in anticoagulant tubes containing EDTA-K2. The samples were placed on ice after collection, and plasma was separated by centrifugation (centrifugation conditions: 1500 g, 10 minutes). The collected plasma was stored at -40 to -20 °C before analysis.
The content of the test compound in mouse plasma after intragastric administration was determined by LC-MS/MS.

T1 sequence (Q14191 whole entry): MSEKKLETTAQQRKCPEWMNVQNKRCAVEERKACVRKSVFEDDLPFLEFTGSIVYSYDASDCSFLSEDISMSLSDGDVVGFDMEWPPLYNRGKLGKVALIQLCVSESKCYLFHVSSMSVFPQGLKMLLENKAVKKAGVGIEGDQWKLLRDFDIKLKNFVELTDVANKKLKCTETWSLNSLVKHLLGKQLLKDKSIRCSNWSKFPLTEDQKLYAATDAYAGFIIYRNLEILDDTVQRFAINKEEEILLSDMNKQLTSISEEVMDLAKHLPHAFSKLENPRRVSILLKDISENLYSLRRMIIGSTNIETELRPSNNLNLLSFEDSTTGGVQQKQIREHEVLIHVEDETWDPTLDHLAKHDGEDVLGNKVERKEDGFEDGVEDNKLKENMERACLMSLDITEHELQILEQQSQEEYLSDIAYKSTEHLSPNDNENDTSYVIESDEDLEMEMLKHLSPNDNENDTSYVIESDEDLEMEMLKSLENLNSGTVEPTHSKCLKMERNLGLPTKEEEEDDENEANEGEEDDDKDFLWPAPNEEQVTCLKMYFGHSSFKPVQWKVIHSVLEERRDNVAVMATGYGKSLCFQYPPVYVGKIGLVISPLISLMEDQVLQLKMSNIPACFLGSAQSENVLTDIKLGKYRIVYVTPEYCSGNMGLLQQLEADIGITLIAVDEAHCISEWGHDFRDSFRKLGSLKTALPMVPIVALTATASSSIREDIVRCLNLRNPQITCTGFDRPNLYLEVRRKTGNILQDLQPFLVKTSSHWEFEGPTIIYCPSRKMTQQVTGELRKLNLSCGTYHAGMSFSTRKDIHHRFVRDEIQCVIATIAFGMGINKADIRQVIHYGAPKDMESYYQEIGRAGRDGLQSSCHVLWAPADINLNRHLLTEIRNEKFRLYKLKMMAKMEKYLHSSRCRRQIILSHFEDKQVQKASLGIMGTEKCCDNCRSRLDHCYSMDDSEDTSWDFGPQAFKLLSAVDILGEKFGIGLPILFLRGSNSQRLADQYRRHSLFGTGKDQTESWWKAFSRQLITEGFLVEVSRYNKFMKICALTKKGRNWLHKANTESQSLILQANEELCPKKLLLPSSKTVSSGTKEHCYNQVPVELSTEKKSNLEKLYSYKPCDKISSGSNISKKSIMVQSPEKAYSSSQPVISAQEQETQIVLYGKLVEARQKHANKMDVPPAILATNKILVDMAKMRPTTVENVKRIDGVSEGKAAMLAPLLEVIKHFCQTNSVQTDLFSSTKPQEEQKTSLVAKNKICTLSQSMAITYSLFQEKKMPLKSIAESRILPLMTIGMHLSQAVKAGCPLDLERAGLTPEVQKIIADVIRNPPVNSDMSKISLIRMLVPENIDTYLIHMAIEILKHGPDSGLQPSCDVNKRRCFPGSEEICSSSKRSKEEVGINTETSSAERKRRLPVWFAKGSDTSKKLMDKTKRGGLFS

| Structure (SMILES) | pIC50 [1] | pIC50 [2] | AUC(0-t) [4] [ng·h/mL] | half-life [4] [h] | Cmax [4] [ng/mL] | pIC50 [3] |
| --- | --- | --- | --- | --- | --- | --- |
| CCc1c(N2CCN(C(=O)c3ncnc(C)c3O)CC2)c(=O)n2nc(C3=CCCCCC3)nc2n1CC(=O)Nc1ccc(C(F)(F)F)cc1Cl [Example 6, N-(2-chloro-4-(trifluoromethyl)phenyl)-2-(2-(cyclohept-1-en-1-yl)-5-ethyl-6-(4-(5-hydroxy-6-methylpyrimidine-4-carbonyl)piperazin-1-yl)-7-oxo-[1,2,4]triazolo[1,5-a]pyrimidin-4(7H)-yl)acetamide] | > 9.00 | 7.00 to 9.00 | 39700 | 1.26 | 15900 | 7.00 to 9.00 |
| CCc1c(N2CCN(C(=O)c3ncnc(C)c3O)CC2)c(=O)n2nc(C3=CCCCCC3)nc2n1CC(=O)Nc1ccc(S(F)(F)(F)(F)F)cc1 [Example 27, 2-(2-(cyclohept-1-en-1-yl)-5-ethyl-6-(4-(5-hydroxy-6-methylpyrimidine-4-carbonyl)piperazin-1-yl)-7-oxo-[1,2,4]triazolo[1,5-a]pyrimidin-4(7H)-yl)-N-(4-(pentafluoro-λ^66-sulfaneyl)phenyl)acet amide] | 7.00 to 9.00 | 7.00 to 9.00 | 66600 | 2.27 | 18100 | 7.00 to 9.00 |
| CCc1c(N2CCN(C(=O)c3ncnc(C)c3O)CC2)c(=O)n2nc(-c3ccc4occc4c3)nc2n1CC(=O)Nc1ccc(S(F)(F)(F)(F)F)cc1 [Example 97, 2-(2-(benzofuran-5-yl)-5-ethyl-6-(4-(5-hydroxy-6-methylpyrimidine-4-carbonyl)piperazin-1-yl)-7-oxo-[1,2,4]triazolo[1,5-a]pyrimidin-4(7H)-yl)-N-(4-(pentafluoro-λ^6-sulfaneyl)phenyl)acetamide] | 7.00 to 9.00 | 7.00 to 9.00 | 28500 | 2.3 | 9920 | 7.00 to 9.00 |
| CCc1c(N2CCN(C(=O)c3ncnc(C)c3O)CC2)c(=O)n2nc(-c3ccc4c(ccn4C)c3)nc2n1CC(=O)Nc1ccc(C(F)(F)F)cc1Cl [Example 103, N-(2-chloro-4-(trifluoromethyl)phenyl)-2-(5-ethyl-6-(4-(5-hydroxy-6-methylpyrimidine-4-carbonyl)piperazin-1-yl)-2-(1-methyl-1H-indol-5-yl)-7-oxo-[1,2,4]triazolo[1,5-a]pyrimidin-4(7H)-yl)ac etamide] | 7.00 to 9.00 | 7.00 to 9.00 | 24300 | 2.75 | 7120 | 7.00 to 9.00 |
| Cc1ncnc(C(=O)N2CCN(c3c(C)n(CC(=O)Nc4ccc(C(F)(F)F)cc4Cl)c4nc(-c5ccc6c(c5)CCO6)nn4c3=O)CC2)c1O [Example 106, N-(2-chloro-4-(trifluoromethyl)phenyl)-2-(2-(2,3-dihydrobenzofuran-5-yl)-6-(4-(5-hydroxy-6-methylpyrimidine-4-carbonyl)piperazin-1-yl)-5-methyl-7-oxo-[1,2,4]triazolo[1,5-a]pyrimidin-4(7H) -yl)acetamide] | 7.00 to 9.00 | 7.00 to 9.00 | 330000 | 4.85 | 45000 | 7.00 to 9.00 |
| CCc1c(N2CCN(C(=O)c3ncnc(C)c3O)CC2)c(=O)n2nc(C3=CC4CC(OC)CC4C3)nc2n1CC(=O)Nc1ccc(C(F)(F)F)cc1Cl (stereo not drawn) [Example 163, N-(2-chloro-4-(trifluoromethyl)phenyl)-2-(5-ethyl-6-(4-(5-hydroxy-6-methylpyrimidine-4-carbonyl)piperazin-1-yl)-2-(5-methoxy-1,3a,4,5,6,6a-hexahydropentalen-2-yl)-7-oxo-[1,2,4]triazolo[1,5-a]pyrimidin-4(7H)-yl)acetamide] | 7.00 to 9.00 | 7.00 to 9.00 | – | – | – | 7.00 to 9.00 |

Now from value to compound, other results behind:

| pIC50 [1] | pIC50 [2] | AUC(0-t) [4] [ng·h/mL] | half-life [4] [h] | Cmax [4] [ng/mL] | Structure (SMILES) | pIC50 [3] |
| --- | --- | --- | --- | --- | --- | --- |
| 7.00 to 9.00 | 7.00 to 9.00 | – | – | – | CCc1c(N2CCN(C(=O)c3ncccc3O)CC2)c(=O)n2nc(C3=CC4CC(C)(O)CC4C3)nc2n1CC(=O)Nc1ccc(C(F)(F)F)cc1Cl (stereo not drawn) [Example 164, N-(2-chloro-4-(trifluoromethyl)phenyl)-2-(5-ethyl-2-(5-hydroxy-5-methyl-1,3a,4,5,6,6a-hexahydropentalen-2-yl)-6-(4-(3-hydroxypicolinoyl)piperazin-1-yl)-7-oxo-[1,2,4]triazolo[1,5-a]pyrimidin-4(7H)-yl)acetamide] | 7.00 to 9.00 |
| > 9.00 | 7.00 to 9.00 | – | – | – | CCc1c(N2CCN(C(=O)c3ncccc3O)CC2)c(=O)n2nc(C3=CC4CC(O)CC4C3)nc2n1CC(=O)Nc1ccc(S(F)(F)(F)(F)F)cc1 (stereo not drawn) [Example 178, 2-(5-ethyl-2-(5-hydroxy-1,3a,4,5,6,6a-hexahydropentalen-2-yl)-6-(4-(3-hydroxypicolinoyl)piperazin-1-yl)-7-oxo-[1,2,4]triazolo[1,5-a]pyrimidin-4(7H)-yl)-N-(4-(pentafluoro-λ^6-sulfaneyl)phenyl) acetamide] | 7.00 to 9.00 |
| 7.00 to 9.00 | 7.00 to 9.00 | – | – | – | CCc1c(N2CCN(C(=O)c3ncnc(C)c3O)CC2)c(=O)n2nc(-c3ccc4c(ccn4CC)c3)nc2n1CC(=O)Nc1ccc(C(F)(F)F)cc1Cl [Example 183, N-(2-chloro-4-(trifluoromethyl)phenyl)-2-(5-ethyl-2-(1-ethyl-1H-indol-5-yl)-6-(4-(5-hydroxy-6-methylpyrimidine-4-carbonyl)piperazin-1-yl)-7-oxo-[1,2,4]triazolo[1,5-a]pyrimidin-4(7H)-yl)ace tamide] | 7.00 to 9.00 |
| 7.00 to 9.00 | 7.00 to 9.00 | – | – | – | CCc1c(N2CCN(C(=O)c3ncnc(C)c3O)CC2)c(=O)n2nc(-c3ccc4c(ccn4C(C)C)c3)nc2n1CC(=O)Nc1ccc(C(F)(F)F)cc1Cl [Example 184, N-(2-chloro-4-(trifluoromethyl)phenyl)-2-(5-ethyl-6-(4-(5-hydroxy-6-methylpyrimidine-4-carbonyl)piperazin-1-yl)-2-(1-isopropyl-1H-indol-5-yl)-7-oxo-[1,2,4]triazolo[1,5-a]pyrimidin-4(7H)-yl) acetamide] | 7.00 to 9.00 |
| 7.00 to 9.00 | 7.00 to 9.00 | – | – | – | [2H]C([2H])([2H])n1ccc2cc(-c3nc4n(CC(=O)Nc5ccc(C(F)(F)F)cc5Cl)c(CC)c(N5CCN(C(=O)c6ncnc(C)c6O)CC5)c(=O)n4n3)ccc21 [Example 185, N-(2-chloro-4-(trifluoromethyl)phenyl)-2-(5-ethyl-6-(4-(5-hydroxy-6-methylpyrimidine-4-carbonyl)piperazin-1-yl)-2-(1-(methyl-d3)-1H-indol-5-yl)-7-oxo-[1,2,4]triazolo[1,5-a]pyrimidin-4(7H)-yl)acetamide] | 7.00 to 9.00 |
| 7.00 to 9.00 | 7.00 to 9.00 | – | – | – | CCc1c(N2CCN(C(=O)c3ncccc3O)CC2)c(=O)n2nc(C3=CC4CC(OC)CC4C3)nc2n1CC(=O)Nc1ccc(C(F)(F)F)cc1Cl (stereo not drawn) [Example 186, N-(2-chloro-4-(trifluoromethyl)phenyl)-2-(5-ethyl-6-(4-(3-hydroxypicolinoyl)piperazin-1-yl)-2-(5-methoxy-1,3a,4,5,6,6a-hexahydropentalen-2-yl)-7-oxo-[1,2,4]triazolo[1,5-a]pyrimidin-4(7H)-yl)acetamide] | 7.00 to 9.00 |
| 7.00 to 9.00 | 7.00 to 9.00 | – | – | – | CCc1c(N2CCN(C(=O)c3nccc(Cl)c3O)CC2)c(=O)n2nc(C3=CC4COCC4C3)nc2n1CC(=O)Nc1ccc(C(F)(F)F)cc1Cl (stereo not drawn) [Example 188, 2-(6-(4-(4-chloro-3-hydroxypicolinoyl)piperazin-1-yl)-5-ethyl-7-oxo-2-(3,3a,4,6a-tetrahydro-1H-cyclopenta[c]furan-5-yl)-[1,2,4]triazolo[1,5-a]pyrimidin-4(7H)-yl)-N-(2-chloro-4-(trifluoromethyl)phenyl)acetamide] | 7.00 to 9.00 |
